# Experiments:
# Assay type in all cases: cell-based, murine
# [1] = tested on: c-Raf; test: Phosphorylation of c-Raf at Ser259 and Ser338, Western blot; details: LPS-stimulated macrophage cells, Western blot (FIG. 11)
# Method: (§1) The prepared murine macrophage cells treated with the LPS in combination with the veratric acid were collected and lysed by using a lysis buffer {50 mM Tris-Cl [pH7.5], 150 mM NaCl, 1 mM DTT, 0.5% NP-40, 1% Triton X-100, 1% deoxycholate, 0.1% SDS and a cocktail of proteinase inhibitors [1 mM PMSF, 1 mM EDTA, 11 μM aprotinin, 11 μM leupeptin, and 11 μM pepstatin A (Intron Biotechnology, Gyeonggi, Korea)]}. Protein samples were electrophoresed by 12% SDS-PAGE and then electrically transferred to a nitrocellulose membrane. Thereafter, the protein samples were allowed to react with primary antibodies capable of recognizing the iNOS. After the membrane was washed and then allowed to react with horseradish peroxidase-linked anti-rabbit IgG or anti-rabbit IgG (Cell Signaling Technology Inc., USA). Then, signals were checked by using an enhanced chemiluminescent (ECL) detection system (Pierce, USA).
# If c-Raf (RAF proto-oncogene serine/threonine-protein kinase) is phosphorylated at Ser^338, the c-Raf induces expression of iNOS. Thus, the present inventors checked a protein level of the c-Raf in the LPS-stimulated macrophage cells and a phosphorylated protein level at Ser^259 and Ser^338 of the c-Raf through a Western blot analysis performed in the same manner as Example 3 in order to confirm whether or not the veratric acid affected the protein level of the c-Raf.
# [2] = tested on: NF-κB; test: Intracellular distribution of NF-κB, immunofluorescent microscopy; details: 100 μM veratric acid 1 hour, LPS 12 hours, immunofluorescent microscopy (FIGS. 8C, 8D)
# Excerpt: An NF-κB is a transcription factor and when the NF-κB is activated by phosphorylated IκBα, it is moved into a nucleus and bound to a promoter site such that target molecules can be transcribed. Thus, the present inventors performed a Western blot analysis and an immunofluorescent microscopy as follows in order to confirm whether or not the veratric acid affected protein levels of the NF-κB and the IκBα. That is, protein expression levels of the NF-κB and the IκBα in the LPS-stimulated macrophage cells were checked through the Western blot analysis performed in the same manner as Example 3, and in the immunofluorescent microscopy, after 100 μM veratric acid was treated for 1 hour, LPS was incubated for 12 hours, and 4,6-diamidino-2-phenylindole (DAPI) was treated at room temperature for 15 minutes, the cells were immobilized with 4% formaldehyde and then distribution of the NF-κB in the cells was checked visually.
# [3] = tested on: STAT-1; test: Phosphorylation of STAT-1, Western blot; details: LPS-stimulated macrophage cells, concentration dependent (FIG. 7)
# Method: as §1
# It is known that secreted IFN-γ promotes phosphorylation of STAT-1 and induces transcription of iNOS, and an activity of the iNOS causes production of nitric oxide and induces inflammation. Therefore, protein expression levels of STAT-1 and phosphorylated STAT-1 were checked through a Western blot analysis performed in the same manner as Example 3 in order to confirm an effect of the veratric acid, which reduced the protein level of the IFN-γ in Example 5, on phosphorylation of STAT-1.
# [4] = tested on: ERK1/2; test: Phosphorylation of ERK1/2, Western blot; details: LPS-stimulated macrophage cells, Western blot (FIG. 9)
# Method: as §1
# (§2) Protein expression levels of JNK, p38, and ERK1/2 in the LPS-stimulated macrophage cells were checked through a Western blot analysis performed in the same manner as Example 3 in order to confirm whether or not the veratric acid affected an activity of MAPK as a superordinate signaling system that produced pro-inflammatory cytokines.
# [5] = tested on: inducible nitric oxide synthase (iNOS); test: iNOS gene and protein expression, RT-PCR and Western blot; details: LPS-stimulated RAW264.7 cells, concentration dependent (FIG. 4)
# Method: Thus, the present inventors performed an RT-PCR and a Western blot analysis as follows in order to confirm whether or not the veratric acid's mechanism of inhibiting nitric oxide production was operated by regulating expression and protein activity of iNOS as an inducible nitric oxide synthase involved in nitric oxide production.
# The prepared murine macrophage RAW264.7 cells treated with the LPS in combination with the veratric acid were used. RNA was extracted and separated from the incubated cells by using 2-mercaptoethanol (Sigma, USA). An RT-PCR was performed by using primers listed in Table 1 with the extracted RNA as a template. Then, after electrophoresis, an expression level of a gene was checked with ultraviolet light.
# as §1, with “After the membrane was washed and then allowed to react with horseradish peroxidase-linked anti-rabbit IgG or anti-rabbit IgG (Cell Signaling Technology Inc., USA). Then, signals were checked by using an enhanced chemiluminescent (ECL) detection system (Pierce, USA).” left out
# [6] = tested on: TNF-α; test: TNF-α protein expression, Western blot; details: LPS-stimulated RAW264.7 cells, Western blot (FIG. 6)
# [7] = tested on: JNK; test: Phosphorylation of JNK, Western blot; details: LPS-stimulated macrophage cells, Western blot (FIG. 9)
# Method: as §1, §2
# [8] = tested on: nitric oxide production in macrophage RAW264.7 cells; test: Nitric oxide (NO) production, Griess reagent; details: LPS 100 ng/ml in combination with veratric acid 50-200 μM, inhibition in proportion to concentration (FIG. 3B)
# Method: In order to confirm whether or not the veratric acid has an activity of inhibiting production of nitric oxide that causes inflammation, the following experiment was performed. The prepared macrophage RAW264.7 cells were seeded in a 96-well plate at 1×10^5 cells/well. Each of the cells was treated at different concentrations (0, 50, 100, 150 and 200 μM) of the veratric acid and incubated for 3 hours. The cells were incubated in a culture medium containing 100 ng/ml LPS for 24 hours. Thereafter, a culture solution was acquired. After the culture solution was allowed to react with a Griess reagent, a production level of nitric oxide induced by the LPS was measured at 540 nm by using the ELIZA analyzer (BD PharMingen, USA).
# [9] = tested on: IFN-γ; test: IFN-γ protein expression, Western blot; details: LPS-stimulated RAW264.7 cells, Western blot (FIG. 6)
# [10] = tested on: cyclooxygenase-2 (COX-2); test: COX-2 gene and protein expression, RT-PCR and Western blot; details: LPS-stimulated RAW264.7 cells
# [11] = tested on: p38; test: Phosphorylation of p38, Western blot; details: LPS-stimulated macrophage cells, Western blot (FIG. 9); stronger effect than on JNK, ERK1/2
# Method: as §1, §2
# [12] = tested on: macrophage RAW264.7 cells; test: Cytotoxicity of veratric acid, WST-1 cell viability; details: up to 200 μM, 3 h pretreatment then 100 ng/ml LPS 24 h
# Method: Cell lines used to evaluate cytotoxicity of a veratric acid were macrophage RAW264.7, human embryonic kidney (HEK) 293, and human keratinocyte (HaCaT) cells. For a cytotoxicity experiment, the cell lines were first incubated in a culture solution of DMEM containing 10% fetal bovine serum (FBS) and 1% penicillin (100 U/ml)/streptomycin (100 U/ml) under a condition of 5% CO2 at a temperature of 37° C. Then, the incubated cells were seeded in a 96-well plate at 1×10^5 cells/well. Each of the cells was treated at different concentrations (0, 50, 100, 150 and 200 μM) of a veratric acid and incubated for 3 hours. After the incubation, the cells were stimulated with 100 ng/ml LPS contained in a culture medium for 24 hours. Thereafter, the culture solution was removed, and then, the cells were treated with a solution of WST-1® (Daeil Lab service, Korea) and further incubated for 3 hours. An optical density of the culture solution was measured at 460 nm by using an ELIZA analyzer to analyze cell viability.
# [13] = tested on: IκBα; test: Phosphorylation of IκBα, Western blot; details: LPS-stimulated macrophage cells, Western blot (FIGS. 8A, 8B)
# Method: as §1
# (§3) An NF-κB is a transcription factor and when the NF-κB is activated by phosphorylated IκBα, it is moved into a nucleus and bound to a promoter site such that target molecules can be transcribed. Thus, the present inventors performed a Western blot analysis and an immunofluorescent microscopy as follows in order to confirm whether or not the veratric acid affected protein levels of the NF-κB and the IκBα. […]
# [14] = tested on: NF-κB; test: Phosphorylation of NF-κB, Western blot; details: LPS-stimulated macrophage cells, reduction in proportion to concentration (FIGS. 8A, 8B)
# Method: as §1, §3
# [15] = tested on: IL-6; test: IL-6 protein expression, Western blot; details: LPS-stimulated RAW264.7 cells, Western blot (FIG. 6)
# [16] = tested on: GSK-3β; test: Phosphorylation of GSK-3β, Western blot; details: LPS-stimulated macrophage cells, concentration dependent (FIG. 10)
# Method: as §1
# A protein expression level of GSK-3β in the LPS-stimulated macrophage cells was checked through a Western blot analysis performed in the same manner as Example 3 in order to confirm whether or not the veratric acid affected phosphorylation of the GSK-3β as a superordinate signaling system that caused inflammatory reactions.
# [17] = tested on: IL-1β; test: IL-1β protein expression, Western blot; details: LPS-stimulated RAW264.7 cells, Western blot (FIG. 6)
smiles,measurement,setting,value
"COc1ccc(C(=O)O)cc1OC [veratric acid, 3,4-Dimethoxybenzoic acid]",phosphorylation at Ser259 of the c-Raf,[1],did not affect
same,phosphorylation at Ser338 of the c-Raf,[1],inhibited
same,movement of the NF-κB into the nucleus,[2],inhibited
same,phosphorylation of the STAT-1,[3],reduced
same,phosphorylation of the ERK1/2,[4],inhibited
same,gene expression of iNOS,[5]; RT-PCR,decreased or inhibited strongly
same,protein expression of iNOS,[5]; Western blot,decreased or inhibited strongly
same,protein expression level of TNF-α,[6],did not affect
same,phosphorylation of the JNK,[7],inhibited
same,excessive production of nitric oxide,[8],inhibited
same,protein expression level of IFN-γ,[9],reduced
same,gene expression of COX-2,[10]; RT-PCR (FIG. 5),did not affect
same,protein expression of COX-2,[10]; Western blot (FIG. 5),did not affect
same,phosphorylation of the p38,[11],inhibited
same,cytotoxicity (cell viability),[12],did not show cytotoxicity
same,phosphorylated IκBα,[13],reduced
same,protein expression of the phosphorylated NF-κB,[14],remarkably reduced
same,protein expression level of IL-6,[15],did not affect
same,phosphorylation of the GSK-3β,[16],remarkably inhibited
same,protein expression level of IL-1β,[17],reduced

# — patent US20140100286A1, “COMPOSITION FOR PREVENTING OR TREATING INFLAMMATORY DISEASES COMPRISING VERATRIC ACID AS EFFECTIVE COMPONENT” (Pukyong National University Industry-University Cooperation …, priority 2012, published 2014)
